Assay results as given in patent publication US4140777A, “Cerebral vasodilating 6-substituted vincamines” (Enrico Corvi Mora, priority 1976, dated 1979).
Structures can show the parent of a compound that is named as a salt.

Experiments:
Type in all cases: in vivo
vertebral arteria = assay: Variation of the hematic flow at the vertebral arteria after i.v. administration (cerebral vasodilating activity); conditions: anestetized dog, i.v. (femoral vein) 5 mg/kg, left vertebral arteria, electromagnetic flowmeters
Description: The cerebral vasodilating activity was studied in the anestetized dog, by measuring, by means of Statham periarterial electromagnetic flowmeters, the hematic flow at the level of the vertebral arteria which, in such animal species, constitutes the greatest blood supply to the brain.
The results are reported in the TABLE as the percent variations of the flow measured at the level of the left vertebral arteria after the administration of the several compounds to be tested to groups of 4 animals for each compound. The results also confirm that the compounds of the invention are all endowed with a vasodilating activity at the level of the cerebral circulus. Such an action for some compounds is more relevant with respect to that of vincamine and of apovincamine.

mouse of the Swiss type = assay: Acute toxicity per intraperitoneal route (LD50, method of Litchfield and Wilcoxon; Gleason classification); conditions: Gleason toxicity class, mouse i.p.
Experimental: (§1) The acute toxicity was assessed in the mouse of the Swiss type, having an average body weight of 20 g and of male sex, groups of 5 animals being used, according to the method of Litchfield and Wilcoxon (observation time: 8 days). The compounds were administered as a suspension in 1% carboxymethylcellulose.
(§2) The acute toxicity was low for all the examined compounds, as confirmed by the following table, in which those of the vincamine HCl and of the apovincamine are also reported.
(§3) In fact, for all the compounds, the toxicity, when evaluated according to the method of Gleason, can be classified as light, modest or negligible.

[1] = as above; conditions: in vivo, ip; Swiss male mouse, suspension in 1% carboxymethylcellulose, observation 8 days
Experimental: as §1, §2, §3

[2] = Absorption: hematic levels at different times from the oral administration; conditions: blood, 100 mg/kg expressed as vincamine and apovincamine, suspension in 5% carboxymethyl cellulose, chromatographic method, read-out: max. conc. time (converted)
Experimental: All the compounds have been orally administered at the dosage of 100 mg/kg, expressed as vincamine and apovincamine, in form of a suspension in a 5% carboxymethyl cellulose solution.
The absorption was determined by evaluating the hematic levels at the following times (minutes): 0, 30, 120, 240, 480, 10 hours and 12 hours, at which it was possible to assess the time, from the administration, of the maximum hematic concentration.
The vincamine and apovincamine concentrations were assessed by chromatographic method.
For the evaluation of the prolonged action the following criterium was adopted; as derivatives having a long-acting effect, there are considered those which, 120 minutes after the administration, show hematic levels higher than those obtained with vincamine and apovincamine.

Structure (SMILES)	Percent variations of the hematic flow at the vertebral arteria (vertebral arteria)	Tox (Gleason) (mouse of the Swiss type)	LD50 at 192 h [1] [mg/kg]	Tmax [2] [min]
CC[C@]12CCCN3CC(O)c4c(n(c5ccccc45)C(O)(C(=O)OC)C1)[C@@H]32 (some centres unmarked) [6-hydroxyvincamine]	+33.4%	modest	900	
CC[C@]12CCCN3CC(=O)c4c(n(c5ccccc45)[C@](O)(C(=O)OC)C1)[C@@H]32 [6-keto-16-epivincamine]	+35.7%	negligible	> 2000	
CC[C@@]12C=C(C(=O)OC)n3c4c(c5ccccc53)C(=O)CN(CCC1)[C@H]42 [6-ketoapovincamine]	+29.2%		> 2000	
CC[C@]12CCCN3CC(=O)c4c(n(c5ccccc45)[C@@](O)(C(=O)OC)C1)[C@@H]32 [6-ketovincamine]	+28.4%		> 2000	
CC[C@]12CCCN3CC(=O)c4c(n(c5ccccc45)C(O)(CO)C1)[C@@H]32 (some centres unmarked) [6-ketovincaminol]	+30.2%	light	1500	
CC[C@]12CCCN3CC(=O)c4c(n(c5ccccc45)C(=O)C1)[C@@H]32 [6-ketovincamone]	+30.2%		> 2000	
CC[C@@]12C=C(C(=O)OC)n3c4c(c5ccccc53)CCN(CCC1)[C@H]42 [Apovincamine, reference compound]	+25.6%	negligible	> 2000	60
CC[C@]12CCCN3CCc4c(n(c5ccccc45)[C@@](O)(C(=O)OC)C1)[C@@H]32 [Vincamine HCl, reference compound]	+24.1%	modest	800	20
